The text below walks through data of patent US12005096B2, “Apoaequorin and vitamin d-containing compositions and methods of using same” (QUINCY BIOSCIENCE, LLC, priority 2016, dated 2024).

Where two headings read alike, the source gives them in different places.

Data set [1] has as its system rat hippocampal brain slices. Briefly: Neuroprotection in rat hippocampal brain slices after oxygen glucose deprivation (OGD). The format is in vivo. To be noted: 5-min OGD; AQ by direct hippocampal injection; vitamin D in diet 0.0125 mg/kg for ~10 days; preliminary results.
Test in data set [2]: not given
The source holds these as a separate data set.

Test in data set [3]: not given
This is another data set of the same source.

[4] abbreviates: apoaequorin 10 mg daily, N=56, eight days to 30 days.

As to apoaequorin, the “overall quality of sleep, energy, mood, pain, general health (change from baseline of scores)” value (32 patients, 90 day period, open-label) is listed as “increase”. In addition, the “participants discontinued the study due to an adverse event” value (from here on “participants discontinued the study due”) (in vivo) is “No participants discontinued the study due to an adverse event”. Besides, the “cell death (dead and dying, blue stained cells) after OGD” value in data set [1] was “few er dead and dying cells”. For the same substance, in data set [2] (56 participants, day 8 and day 30), the “memory performance (memory screening tool)” value is recorded as “improved memory performance as early as eight days but with statistically greater improvement at day 30”. Also, the memory improvement result in data set [2] (apoaequorin 10 mg daily, 56 participants, after 30 days) was “statistically significant improvement in memory”. Moreover, in data set [2] (setting [4]), the “participants with improvement in general memory” value is reported as 57%, the “participants with improvement in remembering driving directions” value stood at 84%, the “participants with improvement in retaining information” value stood at 51% and the “participants with improvement in word recall” value is listed as 66%. For the same substance, the “participants discontinued the study due” value in data set [2] (in vivo) is on record as “No participants discontinued the study due to an adverse event”. Besides, the “participants with an increase in cognitive ability” value in data set [3] (32 patients, 90 days) was “Greater than 51%”. Besides, the “cognition (standardized cognitive battery)” value in data set [3] (32 patients, day 8, 30, 60-90) is “improved cognition as early as eight days but with statistically greater improvement at day 30, as well as 60-90”. For the same substance, the “participants discontinued the study due” value in data set [3] (in vivo) is recorded as “No participants discontinued the study due to an adverse event”.
For the substance vitamin D [reference compound], the “cell death (dead and dying, blue stained cells) after OGD” value in data set [1] is reported as “fewer dead or dying cells”.
